{"source": "patent US20200085047A1", "about": "“Use of an Acyclic Picolinamide Compound as a Fungicide for Control of Phytopathogenic Fungi in Vegetables” (Dow AgroSciences LLC, priority 2017, published 2020)", "format_in_all_cases": "in vivo", "key": {"Alternaria brassicicola": {"tested_on": "Alternaria brassicicola", "test": "Field assessment of Alternaria brassicicola (ALTEBI) on cabbage, 2 day protectant", "settings": "5% EC + Trycol", "from_the_text": "Field assessment of Alternaria brassicicola (ALTEBI) on cabbage:\nA fungicidal treatment containing Compound I, applied in a 5% EC formulation and tank mixed with an adjuvant (Trycol, 50% w/w at 0.2% v/v), was sprayed three times on head cabbage plants (BRSOL) with the first application at 10-12 LF stage of cabbage. The following applications were done at 7 day intervals will all applications being sprayed at rates of 50, 100, and 150 grams of active ingredient per hectare (g ai/ha). The experimental plots were inoculated with black leaf spot pathogen 2 days after the first application. The treatment was part of an experimental trial designed as a randomized complete block with four replications and a plot of approximately 2×1 m, with compound I being applied at water volume of 800 L/ha.\nDisease severity was assessed as the percent diseased area of cabbage bottom foliage (6 plants per plot randomly). Visual infection was assessed three times during the trial at 7 days after each application. Area under the disease progress curve (AUDPC) was calculated for each plot using the sets of recorded severity data. Relative AUDPC (% control based on AUDPC) was calculated as percent of the nontreated control."}, "Alternaria solani [1]": {"tested_on": "Alternaria solani", "test": "Field assessment of Alternaria solani (ALTESO) on tomato, trial 1 (inoculated)", "settings": "for Percent disease control on tomato fruits (AUDPC), Trial 1, 5% EC: 5% EC + Agnique BP420, fruits; for Percent disease control on tomato leaves (AUDPC), Trial 1, 5% EC: 5% EC + Agnique BP420, leaves; for Percent disease control on tomato fruits (AUDPC), Trial 1, 10% SC: 10% SC + Agnique BP420, fruits; for Percent disease control on tomato leaves (AUDPC), Trial 1, 10% SC: 10% SC + Agnique BP420, leaves", "protocol": "(§1) Field Assessment of Alternaria solani (ALTESO) on Tomato:\nAssessment of compound I of ALTESO on tomato was performed in two separate field trials. In the first trial, a fungicidal treatment containing Compound I, applied in both a 5% EC and 10% SC formulation and tank mixed with an adjuvant (Agnique BP420, 50% w/w at 0.3% v/v), was sprayed on tomato plants (LYPES) at approximately 60-70 cm in height at rates of 100 and 200 grams of active ingredient per hectare (g ai/ha). The trial was based on five foliar applications at 7 day intervals with inoculation with the early blight pathogen 2 days after the first application. The treatment was part of an experimental trial designed as a randomized complete block with four replications and a plot of approximately 1.5×4 m. Compound I was applied at water volume of 1000 L/ha with an AZO backpack sprayer using compressed air.\nDisease severity was recorded as percent diseased area on a random selection of 20 leaves and 20 fruits per plot. Percent control was assessed with 6 evaluations made between 0-35 days after the first application, DAA1. Area under the disease progress curve (AUDPC) was calculated for each plot using the sets of recorded severity data. Relative AUDPC (% control based on AUDPC) was calculated as percent of the nontreated control."}, "Alternaria solani [2]": {"tested_on": "Alternaria solani", "test": "Field assessment of Alternaria solani (ALTESO) on tomato, trial 2 (natural disease pressure)", "settings": "for Percent disease control on tomato leaves, Trial 2, 5% EC: 5% EC + Agnique BP420; for Percent disease control on tomato leaves, Trial 2, 10% SC: 10% SC + Agnique BP420", "from_the_text": "as §1\nIn a replicated trial, a fungicidal treatment containing Compound I, applied in both a 5% EC and 10% SC formulation and tank mixed with an adjuvant (Agnique BP420, 50% w/w at 0.3% v/v), was sprayed on tomato plants (LYPES, Taylor variety) at approximately 21 days after planting. Formulations of compound I was applied at rates of 100 and 200 grams of active ingredient per hectare (g ai/ha). The trial was based on six foliar applications at 10 day intervals under natural disease pressure of tomato early blight. The treatment was part of an experimental trial designed as a randomized complete block with four replications and a plot of approximately 2×4 m. Formulations of compound I were applied at water volume of 800 L/ha, using a backpack plot sprayer (BKPCKENG, Solo 443; HCSOLID—Albutz ATR80 Orange Nozzle) and pressurized at 300 kPa. Disease severity (percent control) was recorded as percent visual leaf infection per plot and was assessed at 10 days after the last application."}, "[3]": {"tested_on": "Stagonosporopsis cucurbitacearum", "test": "Field assessment of Stagonosporopsis cucurbitacearum (DIDYBR) on watermelon", "settings": "10% SC; for Percent control based on AUDPC, DIDYBR, adjuvant II: Agnique BP420 (50% w/w at 0.3% v/v)", "from_the_text": "Field Assessment of Stagonosporopsis Cucurbitacearum (DIDYBR) on Watermelon:\nA 10% SC formulation of compound I was tanked mixed with four different adjuvants: Agnique BP420 (50% w/w at 0.3% v/v); Trycol (50% w/w at 0.1% v/v); Ethomeen T18H (50% w/w at 0.2% v/v); and Phase II (50% w/w at 0.2% v/v). A fungicidal treatment containing formulations of compound I, either alone or with adjuvants, was sprayed on watermelon plants four times, the first application approximately 2 months after planting, with the following three applications in 7-10 day intervals. Formulations of compound I were applied at rates of 50, 100, 150 and 200 grams of active ingredient per hectare (g ai/ha). The experimental plots were inoculated with the gummy stem blight pathogen 2 days after the first application. The treatment was part of an experimental trial designed as a randomized complete block with four replications and a plot of approximately 2.5×1.4 m. Formulations of compound I were applied at water volume of 675 L/ha.\nDisease severity was recorded as the length of stem lesion and as percent area diseased foliage (3 random plants per plot). Watermelon gummy stem blight infection was assessed twice, the first at 6 days after the first application (6 DAAA), followed by 19 DAAD. Area under the disease progress curve (AUDPC) was calculated for each plot using the sets of recorded severity data. Relative AUDPC (% control based on AUDPC) was calculated as percent of the nontreated control."}, "Botrytis cinerea": {"tested_on": "Botrytis cinerea", "test": "Greenhouse assessment of Botrytis cinerea (BOTRCI) on broad bean", "settings": "inoculated 1-day post application", "protocol": "Greenhouse Assessment of Botrytis cinerea (BOTRCI) on Broad Bean: Technical grades of material were dissolved in acetone, which were then mixed with nine volumes of water containing 100 ppm of Triton X-100. The fungicide formulations were applied onto seedling plants using an automated booth sprayer to run off. All sprayed plants were allowed to dry prior to further handling. Test plants were inoculated with Botrytis cinerea 1-day post application. When disease symptoms were fully expressed on the untreated plants, percent diseased area of the plant was assessed on a scale of 0 to 100 percent disease severity. Percent disease control was calculated using the ratio of disease severity on treated plants relative to untreated plants."}}, "data": [{"smiles": "COc1ccnc(C(=O)N[C@@H](C)C(=O)O[C@@H](C)C(c2ccc(F)cc2)c2ccc(F)cc2)c1OC(C)=O", "note": "[Compound I, (S)-1,1-bis(4-fluorophenyl)propan-2-yl (3-acetoxy-4-methoxypicolinoyl)-L-alaninate]", "values": [{"measurement": "Percent control based on AUDPC, ALTEBI 2 DP", "setting": "Alternaria brassicicola; 50 g ai/ha", "result": "C (26-50)"}, {"measurement": "Percent control based on AUDPC, ALTEBI 2 DP", "setting": "Alternaria brassicicola; 100 g ai/ha", "result": "B (51-75)"}, {"measurement": "Percent control based on AUDPC, ALTEBI 2 DP", "setting": "Alternaria brassicicola; 150 g ai/ha", "result": "B (51-75)"}, {"measurement": "Percent disease control on tomato fruits (AUDPC), Trial 1, 5% EC", "setting": "Alternaria solani [1]; 100 g ai/ha", "result": "A (76-100)"}, {"measurement": "Percent disease control on tomato leaves (AUDPC), Trial 1, 5% EC", "setting": "Alternaria solani [1]; 100 g ai/ha", "result": "A (76-100)"}, {"measurement": "Percent disease control on tomato fruits (AUDPC), Trial 1, 10% SC", "setting": "Alternaria solani [1]; 100 g ai/ha", "result": "A (76-100)"}, {"measurement": "Percent disease control on tomato leaves (AUDPC), Trial 1, 10% SC", "setting": "Alternaria solani [1]; 100 g ai/ha", "result": "A (76-100)"}, {"measurement": "Percent disease control on tomato fruits (AUDPC), Trial 1, 5% EC", "setting": "Alternaria solani [1]; 200 g ai/ha", "result": "A (76-100)"}, {"measurement": "Percent disease control on tomato leaves (AUDPC), Trial 1, 5% EC", "setting": "Alternaria solani [1]; 200 g ai/ha", "result": "A (76-100)"}, {"measurement": "Percent disease control on tomato fruits (AUDPC), Trial 1, 10% SC", "setting": "Alternaria solani [1]; 200 g ai/ha", "result": "A (76-100)"}, {"measurement": "Percent disease control on tomato leaves (AUDPC), Trial 1, 10% SC", "setting": "Alternaria solani [1]; 200 g ai/ha", "result": "A (76-100)"}, {"measurement": "Percent disease control on tomato leaves, Trial 2, 5% EC", "setting": "Alternaria solani [2]; 100 g ai/ha", "result": "A (76-100)"}, {"measurement": "Percent disease control on tomato leaves, Trial 2, 10% SC", "setting": "Alternaria solani [2]; 100 g ai/ha", "result": "A (76-100)"}, {"measurement": "Percent disease control on tomato leaves, Trial 2, 5% EC", "setting": "Alternaria solani [2]; 200 g ai/ha", "result": "A (76-100)"}, {"measurement": "Percent disease control on tomato leaves, Trial 2, 10% SC", "setting": "Alternaria solani [2]; 200 g ai/ha", "result": "A (76-100)"}, {"measurement": "Percent control based on AUDPC, DIDYBR, adjuvant II", "setting": "[3]; 50 g ai/ha", "result": "A (76-100)"}, {"measurement": "Percent control based on AUDPC, DIDYBR, adjuvant II", "setting": "[3]; 100 g ai/ha", "result": "A (76-100)"}, {"measurement": "Percent control based on AUDPC, DIDYBR, adjuvant IV", "setting": "[3]; 100 g ai/ha, Ethomeen T18H (50% w/w at 0.2% v/v)", "result": "B (51-75)"}, {"measurement": "Percent control based on AUDPC, DIDYBR, adjuvant V", "setting": "[3]; 100 g ai/ha, Phase II (50% w/w at 0.2% v/v)", "result": "B (51-75)"}, {"measurement": "Percent control based on AUDPC, DIDYBR, adjuvant III", "setting": "[3]; 100 g ai/ha, Trycol (50% w/w at 0.1% v/v)", "result": "B (51-75)"}, {"measurement": "Percent control based on AUDPC, DIDYBR, adjuvant I", "setting": "[3]; 100 g ai/ha, no adjuvant", "result": "B (51-75)"}, {"measurement": "Percent control based on AUDPC, DIDYBR, adjuvant II", "setting": "[3]; 150 g ai/ha", "result": "A (76-100)"}, {"measurement": "Percent control based on AUDPC, DIDYBR, adjuvant II", "setting": "[3]; 200 g ai/ha", "result": "A (76-100)"}, {"measurement": "% Control, BOTRCI", "setting": "Botrytis cinerea; 6.25 ppm", "result": "B (51-75)"}, {"measurement": "% Control, BOTRCI", "setting": "Botrytis cinerea; 25 ppm", "result": "A (76-100)"}, {"measurement": "% Control, BOTRCI", "setting": "Botrytis cinerea; 100 ppm", "result": "A (76-100)"}, {"measurement": "% Control, BOTRCI", "setting": "Botrytis cinerea; 400 ppm", "result": "A (76-100)"}]}]}
